Assay results taken from patent US12391698B2, “Substituted piperidines and piperazines and methods for the treatment of CNS disorders” (SUVEN LIFE SCIENCES LIMITED, priority 2022, dated 2025).
Structures can show the parent of a compound that is named as a salt. Where two headings read alike, the source gives them in different places.

Tests used:
[1] = target: T1, hD2S (cloned human dopamine D2S receptor) (Homo sapiens, UniProt P14416); test: Determination of Ki at D2S receptor (radioligand binding, [3H]-Raclopride); conditions: CHO-K1 recombinant cells, [3H]-Raclopride 4 nM
T1 construct: expressed in transfected cells; host or cells: CHO-K1
T1 sequence (P14416 1-414 isoform P14416-2): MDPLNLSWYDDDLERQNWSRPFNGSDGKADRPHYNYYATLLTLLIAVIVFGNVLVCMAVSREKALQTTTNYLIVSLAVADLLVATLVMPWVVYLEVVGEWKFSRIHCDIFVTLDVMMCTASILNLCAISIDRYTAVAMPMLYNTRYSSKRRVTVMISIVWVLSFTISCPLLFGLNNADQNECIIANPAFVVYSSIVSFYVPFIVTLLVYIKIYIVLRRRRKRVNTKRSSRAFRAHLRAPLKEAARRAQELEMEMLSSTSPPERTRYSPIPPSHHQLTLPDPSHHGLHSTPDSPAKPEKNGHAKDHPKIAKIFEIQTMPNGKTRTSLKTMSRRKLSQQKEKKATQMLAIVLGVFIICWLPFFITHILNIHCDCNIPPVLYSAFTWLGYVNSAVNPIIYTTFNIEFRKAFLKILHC
Summary of the method: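 Displacement of 4 nM [3H]-Raclopride from membranes of CHO-K1 cells expressing the receptor, 2 h at r.t. in 50 mM Tris-HCl pH 7.4 with 120 mM NaCl, 5 mM KCl, 5 mM MgCl2, 1 mM EDTA. Non-specific binding defined with 0.1 mM haloperidol; filter-bound radioactivity compared with control.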

[2] = target: T2, recombinant human D2S receptor (Homo sapiens, UniProt P14416); test: Determination of Kb at D2S receptor, pCRE-Luc reporter gene assay in CHO cells; type: cell-based; conditions: for agonist activity at human recombinant D2S receptor / antagonistic activity at human recombinant D2S receptor: pCRE-Luc reporter gene assay; for Kb: with 0.3 μM Dopamine and 1 μM forskolin, luciferase readout
T2 construct: expressed in transfected cells
T2 sequence (P14416 1-414 isoform P14416-2): as above
Experimental: (§1) A stable CHO cell line expressing recombinant human Das receptor and pCRE-Luc reporter system was used for cell-based assay. The assay offers a non-radioactive based approach to determine binding of a compound to GPCRs. In this specific assay, the level of intracellular cAMP which is modulated by activation or inhibition of the receptor is measured. The recombinant cells harbor luciferase reporter gene under the control of cAMP response element.
(§2) The above cells were grown in 96 well clear bottom white plates in Hams F12 medium containing 10% fetal bovine serum (FBS). Prior to the addition of compounds or standard agonist, cells were serum starved overnight. Increasing concentrations of test compound were added along with 0.3 μM of Dopamine and 1 μM of forskolin in Opti-MEM medium to the cells. The incubation was continued at 37° C. in CO2 incubator for 4 hours. Medium was removed and cells were washed with phosphate buffered saline. The cells were lysed and luciferase activity was measured in a Luminometer. Luminescence units were plotted against the compound concentrations using GraphPad Prism software. EC50 values of the compounds were defined as the concentration required in reducing the luciferase activity by 50%. The Kb values were calculated by feeding the concentration of agonist used in the assay and its EC50 value in the same software.
References: European Journal of Pharmacology, 2005, 515, 10-19.

dopamine receptor = test: Reserpine-induced dihydroxyphenylalanine (DOPA) accumulation assay in rat striatum; type: in vivo; conditions: s.c.
Experimental: Reserpine (5.0 mg/kg, s.c.) was injected, after which rats were fasted for 18 h before sacrifice. […] Each rat was sacrificed and the striatum was dissected out of the whole brain on ice. Each striatum was weighed and homogenized individually in buffer containing 0.01 N hydrochloric acid and 0.2 mg/ml L-cysteine. Supernatants were subjected for quantification of DOPA using HPLC coupled to electrochemical detector.

Male Sprague Dawley rats = test: Amphetamine-induced hyperlocomotion; type: in vivo, rat; conditions: 3 mg/kg, p.o., dosed 30 min prior to trial
Experimental: Male Sprague Dawley rats of 230-280 g body weight were used. Rats were weighed and randomized according to their body weights. Following day, the rats were brought to the laboratory 1 h prior to test. In the morning session, rats were habituated to open field arena for 15 min. Test compound/vehicle and amphetamine/vehicle were administered 30 min prior to the trial. After the post-dose interval, rats were placed in the open field and locomotion was recorded for a period of 15 min. Amphetamine-induced hyperlocomotion models positive symptoms of schizophrenia.

[3] = target: T3, cloned human 5-HT2A receptor (Homo sapiens, UniProt P28223); test: Determination of Ki at 5-HT2A receptor (radioligand binding, [3H]-Ketanserine); conditions: CHO-K1 recombinant cells, [3H]-Ketanserine 1.25 nM
T3 construct: expressed in transfected cells; host or cells: CHO-K1
T3 sequence (P28223 whole entry): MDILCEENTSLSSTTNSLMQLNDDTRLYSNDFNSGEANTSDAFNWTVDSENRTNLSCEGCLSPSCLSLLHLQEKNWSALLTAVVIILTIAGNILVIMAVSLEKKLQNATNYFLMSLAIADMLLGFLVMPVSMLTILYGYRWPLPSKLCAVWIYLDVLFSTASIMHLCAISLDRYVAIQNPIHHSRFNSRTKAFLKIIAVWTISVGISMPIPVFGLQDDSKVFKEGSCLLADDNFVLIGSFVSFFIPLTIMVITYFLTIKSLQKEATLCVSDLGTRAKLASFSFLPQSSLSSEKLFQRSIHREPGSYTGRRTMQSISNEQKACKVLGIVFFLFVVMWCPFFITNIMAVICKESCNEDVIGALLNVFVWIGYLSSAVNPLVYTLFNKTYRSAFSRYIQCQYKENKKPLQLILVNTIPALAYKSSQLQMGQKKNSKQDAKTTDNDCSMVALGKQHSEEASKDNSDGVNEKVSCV
Summary of the method: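 Membranes from CHO-K1 cells expressing the receptor, incubated 1 h at r.t. with 1.25 nM [3H]-ketanserin in pH 7.4 Tris-HCl 50 mM, 4 mM CaCl2, 0.1% ascorbic acid. Nonspecific binding defined with 0.1 mM 1-naphthylpiperazine; bound label measured after filtration.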

Male Wistar rats = test: Rotarod test; type: in vivo, rat; conditions: 30 mg/kg p.o., 60 min prior to trial
Experimental: Male Wistar rats of 200-280 g body weight were used. Rats were weighed and randomized according to their body weights. The animals were habituated on a rotating rod (4 rpm) for 4 times. Animals which successfully stayed on the rotating rod for 60 seconds (out of 4 trials per animal) were selected for further study. […] A single trial was carried out on the next day. Animals that were able to stay on the rotating rod for 60 seconds were chosen for further study. Animals were administered with test compound or vehicle 60 min prior to the trial. The latency to fall from the rotating rod was noted. Rotarod test assesses effects of test compound on motor functions.

[4] = target: T4, recombinant rat 5-HT7 receptor (Rattus norvegicus, UniProt P32305); test: Determination of Kb at 5-HT7 receptor, pCRE-Luc reporter gene assay in CHO cells; type: cell-based; conditions: for antagonistic activity at rat recombinant 5-HT7 receptor: pCRE-Luc reporter gene assay
T4 construct: expressed in transfected cells
T4 sequence (P32305 whole entry): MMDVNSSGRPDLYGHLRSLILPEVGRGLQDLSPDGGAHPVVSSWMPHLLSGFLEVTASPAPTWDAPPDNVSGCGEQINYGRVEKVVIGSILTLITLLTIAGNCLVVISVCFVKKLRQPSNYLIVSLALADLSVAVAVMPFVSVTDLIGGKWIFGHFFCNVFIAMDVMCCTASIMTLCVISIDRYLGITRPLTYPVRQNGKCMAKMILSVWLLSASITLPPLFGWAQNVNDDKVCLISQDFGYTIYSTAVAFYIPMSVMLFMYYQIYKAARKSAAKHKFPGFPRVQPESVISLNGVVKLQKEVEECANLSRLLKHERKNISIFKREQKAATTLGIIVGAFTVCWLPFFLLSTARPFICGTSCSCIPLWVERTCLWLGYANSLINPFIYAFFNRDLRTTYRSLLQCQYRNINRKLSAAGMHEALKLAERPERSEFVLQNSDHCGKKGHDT
Experimental: as §1, with “rat 5-HT7” for “human Das”
as §2, with “with” for “with 0.3 μM of Dopamine and”, “serotonin” for “forskolin”

[5] = rat receptor, with 1 μM serotonin, luciferase readout, read-out: Kb at 5-HT7 receptor

O=C1C[C@@H]2CCCN2C(=O)N1CCCCN1CCN(c2nsc3ccccc23)CC1 [Example 2, 2-[4-(4-Benzo[d]isothiazol-3-yl-piperazin-1-yl)-butyl]-tetrahydro-pyrrolo[1,2-c]pyrimidine-1,3-dione oxalate]
Ki ([1]; read-out: Ki hD2S): 5.4 nM
agonist activity at human recombinant D2S receptor [2]: no detectable agonist activity
antagonistic activity at human recombinant D2S receptor [2]: antagonistic activity
Kb [2]: 33 nM
change in reserpine elevated DOPA levels in striatum (dopamine receptor; 10 mg/kg, rat, reserpine 5.0 mg/kg): no change
effect of pre-treatment on apomorphine's decrease of reserpine-induced DOPA accumulation (dopamine receptor; pre-treatment before apomorphine 0.1 mg/kg, rat striatum): blocked the effects of apomorphine
Inference, amphetamine antagonism (hyperlocomotion) (Male Sprague Dawley rats): Active
Ki ([3]; read-out: Ki h5-HT2A): 0.6 nM
Inference, rotarod test (motor incoordination side effects) (Male Wistar rats): No motor incoordination
antagonistic activity at rat recombinant 5-HT7 receptor [4]: antagonistic activity
Kb [4, 5]: 0.6 nM

O=C1C[C@@H]2CCCN2C(=O)N1CCCCN1CCN(c2cccc3sccc23)CC1 [Example 4, 2-[4-(4-Benzo[b]thiophen-4-yl-piperazin-1-yl)-butyl]-tetrahydro-pyrrolo[1,2-c]pyrimidine-1,3-dione oxalate]
Ki ([1]; read-out: Ki hD2S): 1.83 nM
agonist activity at human recombinant D2S receptor [2]: no detectable agonist activity
antagonistic activity at human recombinant D2S receptor [2]: antagonistic activity
Kb [2]: 54.4 nM
Ki ([3]; read-out: Ki h5-HT2A): 4.24 nM

O=C1C[C@@H]2C[C@H](F)CN2C(=O)N1CCCCN1CCN(c2nsc3ccccc23)CC1 [Example 9, 2-[4-(4-Benzo[d]isothiazol-3-yl-piperazin-1-yl)-butyl]-6-fluoro-tetrahydro-pyrrolo[1,2-c]pyrimidine-1,3-dione oxalate]
Ki ([1]; read-out: Ki hD2S): 2.78 nM
Ki ([3]; read-out: Ki h5-HT2A): 2.49 nM
antagonistic activity at rat recombinant 5-HT7 receptor [4]: antagonistic activity
Kb [4, 5]: 0.7 nM

O=C1C[C@@H]2C[C@H]3C[C@H]3N2C(=O)N1CCCCN1CCN(c2nsc3ccccc23)CC1 [Example 11, 3-[4-(4-Benzo[d]isothiazol-3-yl-piperazin-1-yl)-butyl]-hexahydro-1b,3-diaza-cyclopropa[a]indene-2,4-dione oxalate]
Ki ([1]; Ki hD2S): 0.62 nM
Ki ([3]; Ki h5-HT2A): 1.02 nM
Kb [4]: 0.17 nM
antagonistic activity at rat recombinant 5-HT7 receptor [4]: antagonistic activity
